Like-named read-outs stand apart in the source and are kept apart here. No end group written: not given here.
What was measured:
[1] = test system: MCF-7; settings: 48 h, MTT; for % of cell viability of MCF-7, mitotane alone: mitotane 25 µg/mL alone
Method: (§1) Selected human cell lines were cultured in DMEM media with 10% fetal bovine serum (FBS) at 37°C in a CO2 incubator. After 70%–90% confluence, 5 mL of 0.25% trypsin is injected to separate the cells. The cells were counted using trypan blue, and the cell concentration was set at 10^5/mL. A 96-well plate was filled with 100 mL in each well, and the plate was then incubated for 24 h.
(§2) In this study the media in each well was replaced to contain media containing peptides in varying concentrations (U1, U2, U3, U4, U5, U6, U7, U8, and U9). […] Mitotane concentrations ranged from 20 to 600 µM. U3 and U7 were combined with mitotane using two different preparation techniques. Various concentrations of U3 or U7 (40–1500 µM) and mitotane (20–600 µM) were serially diluted. serial dilution of mitotane concentration with 500 µg/mL of U3 or U7 at a fixed concentration Each concentration was repeated four times.

[2] = test system: HepG2; settings: for % of cell viability of HepG2, mitotane alone: mitotane 25 µg/mL (80 µM) alone, MTT, 80 µM; for % of cell viability of HepG2, mitotane alone / IC50: 48 h
Method: as §1, §2

[3] = test system: MCF-7; test: cells; settings: Homo sapiens, MCF7, read-out: IC50 value against MCF-7, single agent
Method: as §1, §2

[4] = test system: HepG2; test: cells; settings: Homo sapiens, HepG2, read-out: IC50 value against HepG2, single agent
Method: as §1, §2

[5] = test system: T47D; test: MTT cell viability assay, T47D; type: cell-based, human; settings: Table 3, 48 h, peptide alone
Method: MCF-7, T47D (breast cancer), and HepG2 (liver cancer) were donated by the Tissue Culture Unit, Department of Biochemistry, Faculty of Science, King Abdulaziz University. Selected human cell lines were cultured in DMEM media with 10% fetal bovine serum (FBS) at 37°C in a CO2 incubator. After 70%–90% confluence, 5 mL of 0.25% trypsin is injected to separate the cells. The cells were counted using trypan blue, and the cell concentration was set at 10^5/mL. A 96-well plate was filled with […] in each well, and the plate was then incubated for 24 h.
Mitotane, marketed as Lysodren, functions as a steroidogenesis inhibitor and cytostatic antineoplastic drug. It is employed for treating adrenocortical carcinoma and Cushing’s syndrome ([Lo Iacono et al., 2021]). In this study the media in each well was replaced to contain media containing peptides in varying concentrations (U1, U2, U3, U4, U5, U6, U7, U8, and U9). U3 and U7, which have the lowest IC50 values, were chosen to be combined with mitotane. Mitotane concentrations ranged from 20 to 600 µM. U3 and U7 were combined with mitotane using two different preparation techniques. Various concentrations of U3 or U7 (40–1500 µM) and mitotane (20–600 µM) were serially diluted. serial dilution of mitotane concentration with 500 µg/mL of U3 or U7 at a fixed concentration Each concentration was repeated four times.
After 48 h of incubation at 37°C, 100 µL of the 0.5 mg/mL MTT was changed with media containing the medication. At 37°C in the dark, the 96-well plate was incubated for 4 h. After removing the MTT and replacing it with 100 µL of DMSO, the plate was allowed to rest for 15 min. The absorbance of each well in 96 well plate was read at wave length 595 nm by ELISA reader (Bio-RAD microplate reader, Japan).
The treated cells viability and IC50 were expressed as the mean ± standard deviation (SD). The percentage viability was calculated by multiplying the absorbance of treated cells by 100 and dividing the absorbance of untreated cells. The software GraphPad Prism (version 9.0, San Diego, CA, United States) was conducted to calculate the IC50 of peptides, mitotane and their combination.

[6] = mean ± SD, n = 3, read-out: IC50 value against T47D
[7] = range from GraphPad fit, read-out: IC50 range against T47D
[8] = read-out: IC50 range against MCF-7, Table 3, peptide alone, range from GraphPad fit
[9] = read-out: IC50 value against MCF-7, Table 3, peptide alone, mean ± SD, n = 3
[10] = read-out: IC50 value against MCF-7, single agent, Table 4/Figure 2, U3, U7 40–1500 µM or mitotane alone, mean ± SD, n = 3

Row | Molecule | % of cell viability of MCF-7, mitotane alone [1] | % of cell viability of MCF-7, mitotane alone ([1]; listed as mitotane) | % of cell viability of HepG2, mitotane alone [2] | % of cell viability of HepG2, mitotane alone ([2]; listed as mitotane) | HepG2 IC50 fold lower than MCF-7 ([2]; mitotane alone, HepG2 versus MCF-7) | IC50 [3] | IC50 [4] | IC50 [5, 6] | IC50 [5, 7] | IC50 [1, 8] | IC50 [1, 9] | IC50 [1, 10] | IC50 [2]
1 | Clc1ccc(C(c2ccccc2Cl)C(Cl)Cl)cc1 (centres unmarked) [Mitotane] | 59% | 59.05 ± 1.83% | 41% | 41.86 ± 4.54% | 2 fold | 76.3 ± 5.04 µM | 40.1 ± 4.69 µM |  |  |  |  |  | 
2 | AVGSASPTL [Peptide U6] |  |  |  |  |  |  |  | 5900 ± 119 µM | 2520 to 13800 µM | 1360 to 2080 µM | 1680 ± 74.3 µM |  | 
3 | DEEENTHISTR [Peptide U5] |  |  |  |  |  |  |  | 1260 ± 62.5 µM | 866 to 1830 µM | 549 to 1090 µM | 773 ± 44.5 µM |  | 
4 | HDNTAHPAPDS [Peptide U9] |  |  |  |  |  |  |  | 5460 ± 99.3 µM | 2620 to 11400 µM | 351 to 496 µM | 418 ± 15.7 µM |  | 
5 | NCSIHGDIPAY [Peptide U7] |  |  |  |  |  |  |  | 584 ± 30 µM | 485 to 703 µM | 266 to 458 µM | 349 ± 25.3 µM | 554 ± 44.4 µM | 524 ± 35.8 µM
6 | NEEENTHISTR [Peptide U4] |  |  |  |  |  |  |  | 872 ± 23.4 µM | 723 to 1050 µM | 261 to 338 µM | 297 ± 19.7 µM |  | 
7 | NGSIPATWASL [Peptide U3] |  |  |  |  |  |  |  | 518 ± 34.9 µM | 435 to 616 µM | 373 to 617 µM | 480 ± 55 µM | 556 ± 43.5 µM | 561 ± 39.3 µM
8 | NQADSSPSS [Peptide U2] |  |  |  |  |  |  |  | 1510 ± 78 µM | 1140 to 1990 µM | 451 to 1030 µM | 682 ± 32 µM |  | 
9 | SSQGYGSSPSPTPR [Peptide U1] |  |  |  |  |  |  |  | 599 ± 20.4 µM | 458 to 784 µM | 1010 to 2260 µM | 1510 ± 71.7 µM |  | 
10 | TFPCSASNK [Peptide U8] |  |  |  |  |  |  |  | 4710 ± 83.6 µM | 1990 to 11100 µM | 518 to 792 µM | 641 ± 43.8 µM |  | 

Source: PMC10920327, “Prediction of anticancer peptides derived from the true lectins of Phoenix dactylifera and their synergetic effect with mitotane” (Frontiers in Pharmacology, 2024)
